Where two headings read alike, the source gives them in different places.
What was measured:
Experiment in all cases: Composition activity test, post-emergence foliage spray
Assay type in all cases: in vivo
Malachium aquaticum = system: Malachium aquaticum
Protocol: (§1) are as follows, and the others were purchased from reagent companies. The technical materials were all dissolved in acetone and diluted with an aqueous solution containing 0.1% emulsifier Tween-80. The dilution is performed as required.
(§2) Weeds were cultivated by a pot culture method. […] Full and uniform weed seeds were selected, soaked in warm water at 25° C. for 6 hours, and germinated in a 28° C. biochemical incubator (darkness). The weed seeds that had just germinated were evenly placed on the surface of the soil and then covered with 0.5-1 cm soil according to the sizes of seeds.
(§3) The culture was carried out in a controllable sunlight greenhouse at 20 to 30° C., in natural light, and relative humidity of 57% to 72%.
(§4) 3 pots with 20 weed seeds per pot were treated in one treatment with 4 replications per treatment.
(§5) The agents were used for only once in the experiment. In the stage of weeds with 1.5-2 leaves, the weeds were thinned out to maintain 10 weeds per pot and 30 weeds for each treatment, then continued to be cultured to Conyza Canadensis 10 cm in height, other weeds 3-4 leaves stage and treated.
(§6) The well-cultured weeds were evenly placed on a platform with an area of 0.5 m^2, and a solution of agents was sprayed on the stems and leaves thereof by the 3WP-2000-type walking spray tower at a dosage of 450 kg/ha and at a spray pressure of 0.3 MPa. After all the solution was sprayed, the valve was closed. After 30 seconds, the door of the spray tower was opened, and the nutritional bowl was taken out. Then the valve was opened, and the spray tube was cleaned by spraying 50 ml of water. After the treatment, the weeds were routinely cultured in a greenhouse.
(§7) A method for investigating absolute number was employed, wherein whole seedlings of survival weeds were cut off with a blade along the soil surface, and the fresh weight of the weeds was weighed with an analytical balance. For dead weeds, the fresh weight thereof was zero.
(§8) The investigation was performed after 21 days of the treatment for only once.
(§9) An optimum ratio of the two active ingredients was determined by the actual control effect, characteristics of herbicides, and balance of a corresponding formula. Wherein, in the formula, X represented the fresh weight inhibition rate of the active ingredient A in a dosage of P, and Y represented the fresh weight inhibition rate of the active ingredient B in a dosage of Q. The statistical results were shown in the table 6.

Eclipta prostrate = conditions: foliar, read-out: Control effect (%) of B applied alone (B)
Protocol: as §1, §2, §3, §4, §5, §6, §7, §8, §9

Lithospermum arvense = system: Lithospermum arvense
Protocol: as §1, §2, §3, §4, §5, §6, §7, §8, §9

Veronica didyma Tenore = conditions: Veronica polita, foliar, Veronica didyma Tenore, foliage, read-out: Control effect (%) of B applied alone (B)
Protocol: as §1, §2, §3, §4, §5, §6, §7, §8, §9

COCc1cnc(C2=NC(C)(C(C)C)C(=O)N2)c(C(=O)O)c1 (stereo not shown) [imazamox]
Control effect (%) of B applied alone (B) (Malachium aquaticum; B 15 g a.i./ha): 27.2%

CC(C)c1ccc(NC(=O)N(C)C)cc1 [isoproturon]
pest or weed control at 225 g/ha (Eclipta prostrate; Eclipta prostrate, foliage, B 225 g a.i./ha): 33.9%

CSc1nnc(C(C)(C)C)c(=O)n1N [metribuzin]
pest or weed control at 15 g/ha (Eclipta prostrate; Eclipta prostrate, foliage, B 15 g a.i./ha): 36.3%

COc1cc(OC)nc(NC(=O)NS(=O)(=O)c2ncccc2C(=O)N(C)C)n1 [nicosulfuron]
Control effect (%) of B applied alone (B) (Malachium aquaticum; B 3 g a.i./ha): 31.4%

CC(C)Oc1cc(-n2nc(C(C)(C)C)oc2=O)c(Cl)cc1Cl [oxadiazon]
Control effect (%) of B applied alone (B) (Lithospermum arvense; B 90 g a.i./ha): 24.3%

CCOc1cc(Oc2ccc(C(F)(F)F)cc2Cl)ccc1[N+](=O)[O-] [oxyfluorfen]
Control effect (%) of B applied alone (B) (Lithospermum arvense; B 60 g a.i./ha): 31.5%

COC(=O)Nc1cccc(OC(=O)Nc2cccc(C)c2)c1 [phenmedipham]
pest or weed control at 300 g/ha (Eclipta prostrate; Eclipta): 20.8%

Nc1c(Cl)c(Cl)nc(C(=O)O)c1Cl [picloram]
pest or weed control at 300 g/ha (Veronica didyma Tenore; B 300 g a.i./ha): 43.6%

CCC(=O)Nc1ccc(Cl)c(Cl)c1 [propanil]
pest or weed control at 300 g/ha (Eclipta prostrate; Eclipta prostrate, foliage, B 300 g a.i./ha): 21.7%

C#CCN(C)c1c(C#N)cnn1-c1nn2c(c1Cl)CCCC2 [pyraclonil]
Control effect (%) of B applied alone (B) (Lithospermum arvense; B 75 g a.i./ha): 37.9%

CCS(=O)(=O)c1cccnc1S(=O)(=O)NC(=O)Nc1nc(OC)cc(OC)n1 [rimsulfuron]
Control effect (%) of B applied alone (B) (Malachium aquaticum; B 1.5 g a.i./ha): 26.2%

CC(C)N(C)S(=O)(=O)NC(=O)c1cc(-n2c(=O)cc(C(F)(F)F)n(C)c2=O)c(F)cc1Cl [saflufenacil]
Control effect (%) of B applied alone (B) (Lithospermum arvense; B 0.75 g a.i./ha): 39.7%

Cc1nn(-c2cc(NS(C)(=O)=O)c(Cl)cc2Cl)c(=O)n1C(F)F [sulfentrazone]
Control effect (%) of B applied alone (B) (Lithospermum arvense; B 90 g a.i./ha): 26.5%

CCNc1nc(Cl)nc(NC(C)(C)C)n1 [terbuthylazine]
pest or weed control at 150 g/ha (Eclipta prostrate; Eclipta prostrate, foliage, B 150 g a.i./ha): 31.7%

COC(=O)c1csc(C)c1S(=O)(=O)NC(=O)n1nc(OC)n(C)c1=O [thiencarbazone-methyl]
Control effect (%) of B applied alone (B) (Malachium aquaticum; B 3 g a.i./ha): 41.1%

COC(=O)c1sccc1S(=O)(=O)NC(=O)Nc1nc(C)nc(OC)n1 [thifensulfuron methyl]
Control effect (%) of B applied alone (B) (Malachium aquaticum; B 4.5 g a.i./ha): 30.8%

O=C(O)COc1nc(Cl)c(Cl)cc1Cl [triclopyr]
pest or weed control at 90 g/ha (Veronica didyma Tenore; B 90 g a.i./ha): 34.2%

C#CCN1C(=O)C(F)(F)Oc2cc(F)c(-n3c(=O)n(C)c(=S)n(C)c3=O)cc21 [trifludimoxazin]
Control effect (%) of B applied alone (B) (Lithospermum arvense; B 4.5 g a.i./ha): 31.8%

oxadiargyl
Control effect (%) of B applied alone (B) (Lithospermum arvense; B 30 g a.i./ha): 38.7%
